Active and inactive are the calls of the source. No rule for the calls is given here.
Test system: CCRIS mutagenicity, Ames/micronucleus/aberration tests
Test: CCRIS mutagenicity studies

Structure (SMILES): CC[C@@]1(O)C[C@H](O[C@H]2C[C@H](N(C)C)[C@H](O[C@H]3C[C@H](O)[C@H](O)[C@H](C)O3)C(C)O2)c2c(cc3c(c2O)C(=O)c2c(O)ccc(O)c2C3=O)[C@H]1C(=O)OC (stereo partly specified)
- mutagenic call (Test System: AMES SALMONELLA TYPHIMURIUM, Strain/Indicator: TA102, Metabolic Activation: NONE, Method: STANDARD PLATE): active; positive
- mutagenic call (Test System: AMES SALMONELLA TYPHIMURIUM, Strain/Indicator: TA104, Metabolic Activation: NONE, Method: STANDARD PLATE): active; positive

Structure (SMILES): Cc1ccccc1NO
- mutagenic call (Test System: AMES SALMONELLA TYPHIMURIUM, Strain/Indicator: TA98, Metabolic Activation: NONE, Method: STANDARD PLATE): inactive; negative
- mutagenic call (Test System: AMES SALMONELLA TYPHIMURIUM, Strain/Indicator: TA98, Metabolic Activation: RAT, LIVER, S-9, AROCLOR 1254, Method: PREINCUBATION): inactive; negative
- mutagenic call (Test System: AMES SALMONELLA TYPHIMURIUM, Strain/Indicator: TA98, Metabolic Activation: RAT, LIVER, S-9, AROCLOR 1254, Method: STANDARD PLATE): inactive; negative
- mutagenic call (Test System: AMES SALMONELLA TYPHIMURIUM, Strain/Indicator: TA100, Metabolic Activation: NONE, Method: STANDARD PLATE): inactive; negative
- mutagenic call (Test System: AMES SALMONELLA TYPHIMURIUM, Strain/Indicator: TA100, Metabolic Activation: RAT, LIVER, S-9, AROCLOR 1254, Method: STANDARD PLATE): active; positive
- mutagenic call (Test System: AMES SALMONELLA TYPHIMURIUM, Strain/Indicator: TA100, Metabolic Activation: RAT, LIVER, S-9, PCB, Method: PREINCUBATION): active; positive

Structure (SMILES): CCCCCCCCCCCCCCCCCC(=O)NCCNC(=O)CCCCCCCCCCCCCCCCC
- mutagenic call (Test System: AMES SALMONELLA TYPHIMURIUM, Strain/Indicator: TA98, Metabolic Activation: NONE, Method: PREINCUBATION): inactive; negative
- mutagenic call (Test System: AMES SALMONELLA TYPHIMURIUM, Strain/Indicator: TA98, Metabolic Activation: RAT LIVER S-9, PHENOBARBITAL AND BETA-NAPHTHOFLAVONE, Method: PREINCUBATION): inactive; negative
- mutagenic call (Test System: AMES SALMONELLA TYPHIMURIUM, Strain/Indicator: TA98, Metabolic Activation: RAT, LIVER, S-9, KC 500, Method: PREINCUBATION): inactive; negative
- mutagenic call (Test System: AMES SALMONELLA TYPHIMURIUM, Strain/Indicator: TA100, Metabolic Activation: NONE, Method: PREINCUBATION): inactive; negative
- mutagenic call (Test System: AMES SALMONELLA TYPHIMURIUM, Strain/Indicator: TA100, Metabolic Activation: RAT LIVER S-9, PHENOBARBITAL AND BETA-NAPHTHOFLAVONE, Method: PREINCUBATION): inactive; negative
- mutagenic call (Test System: AMES SALMONELLA TYPHIMURIUM, Strain/Indicator: TA100, Metabolic Activation: RAT, LIVER, S-9, KC 500, Method: PREINCUBATION): inactive; negative
- mutagenic call (Test System: AMES SALMONELLA TYPHIMURIUM, Strain/Indicator: TA1535, Metabolic Activation: NONE, Method: PREINCUBATION): inactive; negative
- mutagenic call (Test System: AMES SALMONELLA TYPHIMURIUM, Strain/Indicator: TA1535, Metabolic Activation: RAT LIVER S-9, PHENOBARBITAL AND BETA-NAPHTHOFLAVONE, Method: PREINCUBATION): inactive; negative
- mutagenic call (Test System: AMES SALMONELLA TYPHIMURIUM, Strain/Indicator: TA1535, Metabolic Activation: RAT, LIVER, S-9, KC 500, Method: PREINCUBATION): inactive; negative
- mutagenic call (Test System: AMES SALMONELLA TYPHIMURIUM, Strain/Indicator: TA1537, Metabolic Activation: NONE, Method: PREINCUBATION): inactive; negative
- mutagenic call (Test System: AMES SALMONELLA TYPHIMURIUM, Strain/Indicator: TA1537, Metabolic Activation: RAT LIVER S-9, PHENOBARBITAL AND BETA-NAPHTHOFLAVONE, Method: PREINCUBATION): inactive; negative
- mutagenic call (Test System: AMES SALMONELLA TYPHIMURIUM, Strain/Indicator: TA1537, Metabolic Activation: RAT, LIVER, S-9, KC 500, Method: PREINCUBATION): inactive; negative
- mutagenic call (Test System: AMES SALMONELLA TYPHIMURIUM, Strain/Indicator: TA1538, Metabolic Activation: NONE, Method: PREINCUBATION): inactive; negative
- mutagenic call (Test System: AMES SALMONELLA TYPHIMURIUM, Strain/Indicator: TA1538, Metabolic Activation: RAT, LIVER, S-9, KC 500, Method: PREINCUBATION): inactive; negative
- mutagenic call (Test System: E. COLI, Strain/Indicator: WP2 UVRA, Metabolic Activation: NONE, Method: PREINCUBATION): inactive; negative
- mutagenic call (Test System: E. COLI, Strain/Indicator: WP2 UVRA, Metabolic Activation: RAT, LIVER, S-9, KC 500, Method: PREINCUBATION): inactive; negative
- mutagenic call (Test System: E.COLI, Strain/Indicator: WP2UVRA/PKM101, Metabolic Activation: NONE, Method: PREINCUBATION): inactive; negative
- mutagenic call (Test System: E.COLI, Strain/Indicator: WP2UVRA/PKM101, Metabolic Activation: RAT LIVER S-9, PHENOBARBITAL AND BETA-NAPHTHOFLAVONE, Method: PREINCUBATION): inactive; negative

Source: PubChem BioAssay AID1259407 (Chemical Carcinogenesis Research Information System (CCRIS), 2018)
